Laboratory results as given in PubChem BioAssay AID2060490 (Molecular Pharmacology Branch, DTP, NCI, 2025).

Test system: 885512-296-R-J2-PDC complex spheroid viability
Test: Anticancer human tumor 885512-296-R-J2-PDC patient-derived breast carcinoma cell line growth inhibition [GQUAD]
Conditions: for IC50: curve of first compound; for viability, T/C: stronger effect = lower value
Summary of the method: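 Tumor cells were grown as complex spheroids with HUVEC endothelial cells and mesenchymal stem cells as stroma. G-quadruplex stabilizers were combined with targeted agents over half-log dilutions from near the clinical Cmax, or from 10 microM.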

[1] = second compound 0.0316 µM, first compound 0.0316 µM
[2] = second compound 0.0316 µM, first compound 0.1 µM
[3] = second compound 0.0316 µM, first compound 0.316 µM
[4] = second compound 0.0316 µM, first compound 1 µM
[5] = second compound 0.0316 µM, first compound 3.16 µM
[6] = second compound 0.0316 µM, first compound 10 µM
[7] = second compound 0.1 µM, first compound 0.0316 µM
[8] = second compound 0.1 µM, first compound 0.1 µM
[9] = second compound 0.1 µM, first compound 0.316 µM
[10] = second compound 0.1 µM, first compound 1 µM
[11] = second compound 0.1 µM, first compound 3.16 µM
[12] = second compound 0.1 µM, first compound 10 µM
[13] = second compound 0.316 µM, first compound 0.0316 µM
[14] = second compound 0.316 µM, first compound 0.1 µM
[15] = second compound 0.316 µM, first compound 0.316 µM
[16] = second compound 0.316 µM, first compound 1 µM
[17] = second compound 0.316 µM, first compound 3.16 µM
[18] = second compound 0.316 µM, first compound 10 µM
[19] = second compound 1 µM, first compound 0.0316 µM
[20] = second compound 1 µM, first compound 0.1 µM
[21] = second compound 1 µM, first compound 0.316 µM
[22] = second compound 1 µM, first compound 1 µM
[23] = second compound 1 µM, first compound 3.16 µM
[24] = second compound 1 µM, first compound 10 µM
[25] = second compound 3.16 µM, first compound 0.0316 µM
[26] = second compound 3.16 µM, first compound 0.1 µM
[27] = second compound 3.16 µM, first compound 0.316 µM
[28] = second compound 3.16 µM, first compound 1 µM
[29] = second compound 3.16 µM, first compound 3.16 µM
[30] = second compound 3.16 µM, first compound 10 µM
[31] = second compound 10 µM, first compound 0.0316 µM
[32] = second compound 10 µM, first compound 0.1 µM
[33] = second compound 10 µM, first compound 0.316 µM
[34] = second compound 10 µM, first compound 1 µM
[35] = second compound 10 µM, first compound 3.16 µM
[36] = second compound 10 µM, first compound 10 µM
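Also: spheroids exposed to the compounds for one week.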
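For viability, T/C in this document: percent of tumor spheroid viability relative to DMSO vehicle control wells.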

## CC1COCCN1c1cc(C2(S(C)(=N)=O)CC2)nc(-c2ccnc3[nH]ccc23)n1 (stereo not drawn) + CN(C)c1ccc(Nc2c3ccc(NC(=O)CCN4CCCC4)cc3nc3cc(NC(=O)CCN4CCCC4)ccc23)cc1
Second compound 0.0316 µM
  IC50: 0.8 µM
Second compound 0.1 µM
  IC50: 0.795 µM
Second compound 0.316 µM
  IC50: 0.765 µM
Second compound 1 µM
  IC50: 0.729 µM
Second compound 3.16 µM
  IC50: 0.744 µM
Second compound 10 µM
  IC50: < 0.0316 µM
[1]
  viability, T/C: 102%
[2]
  viability, T/C: 90.4%
[3]
  viability, T/C: 93%
[4]
  viability, T/C: 39.7%
[5]
  viability, T/C: 5.75%
[6]
  viability, T/C: 3.04%
[7]
  viability, T/C: 104%
[8]
  viability, T/C: 92.5%
[9]
  viability, T/C: 90.7%
[10]
  viability, T/C: 39.9%
[11]
  viability, T/C: 6.39%
[12]
  viability, T/C: 2.92%
[13]
  viability, T/C: 110%
[14]
  viability, T/C: 102%
[15]
  viability, T/C: 87.1%
[16]
  viability, T/C: 39.5%
[17]
  viability, T/C: 6.6%
[18]
  viability, T/C: 4.64%
[19]
  viability, T/C: 97.3%
[20]
  viability, T/C: 90.8%
[21]
  viability, T/C: 85.1%
[22]
  viability, T/C: 36.9%
[23]
  viability, T/C: 6.12%
[24]
  viability, T/C: 3.44%
[25]
  viability, T/C: 96.7%
[26]
  viability, T/C: 98.4%
[27]
  viability, T/C: 100%
[28]
  viability, T/C: 33.3%
[29]
  viability, T/C: 6.38%
[30]
  viability, T/C: 3.89%
[31]
  viability, T/C: 15.1%
[32]
  viability, T/C: 20.8%
[33]
  viability, T/C: 21.7%
[34]
  viability, T/C: 11.7%
[35]
  viability, T/C: 7.12%
[36]
  viability, T/C: 4.27%

## COc1ncnc(C2CC2)c1-c1ncc2cnn(Cc3ccc(-c4nc(C(F)(F)F)cn4C(C)C)cc3)c2n1 + Cc1[nH]c2ccc(F)cc2c1-c1nc2c3cccnc3c3ncccc3c2[nH]1
Second compound 0.0316 µM
  IC50: 0.948 µM
Second compound 0.1 µM
  IC50: 0.66 µM
Second compound 0.316 µM
  IC50: 0.564 µM
Second compound 1 µM
  IC50: 0.0939 µM
Second compound 3.16 µM
  IC50: < 0.0316 µM
Second compound 10 µM
  IC50: < 0.0316 µM
[1]
  viability, T/C: 89.9%
[2]
  viability, T/C: 82.6%
[3]
  viability, T/C: 64.5%
[4]
  viability, T/C: 52.1%
[5]
  viability, T/C: 25.1%
[6]
  viability, T/C: 2.97%
[7]
  viability, T/C: 104%
[8]
  viability, T/C: 83.5%
[9]
  viability, T/C: 66.7%
[10]
  viability, T/C: 38.7%
[11]
  viability, T/C: 23.7%
[12]
  viability, T/C: 2.95%
[13]
  viability, T/C: 88.5%
[14]
  viability, T/C: 78.3%
[15]
  viability, T/C: 60.5%
[16]
  viability, T/C: 34.5%
[17]
  viability, T/C: 27.8%
[18]
  viability, T/C: 2.76%
[19]
  viability, T/C: 59.2%
[20]
  viability, T/C: 49.4%
[21]
  viability, T/C: 37.4%
[22]
  viability, T/C: 28.5%
[23]
  viability, T/C: 25.1%
[24]
  viability, T/C: 2.31%
[25]
  viability, T/C: 5.23%
[26]
  viability, T/C: 4.49%
[27]
  viability, T/C: 2.87%
[28]
  viability, T/C: 4.14%
[29]
  viability, T/C: 3.49%
[30]
  viability, T/C: 0.54%
[31]
  viability, T/C: 1.44%
[32]
  viability, T/C: 1.29%
[33]
  viability, T/C: 1.4%
[34]
  viability, T/C: 2.23%
[35]
  viability, T/C: 2.81%
[36]
  viability, T/C: 0.35%

## Cc1cccc(N(C)C(=O)C2C(O)CCN2c2nc(C)cc(C(F)(F)F)c2C#N)c1 (stereo not drawn) + Cc1[nH]c2ccc(F)cc2c1-c1nc2c3cccnc3c3ncccc3c2[nH]1
Second compound 0.0316 µM
  IC50: > 10 µM
Second compound 0.1 µM
  IC50: > 10 µM
Second compound 0.316 µM
  IC50: > 10 µM
Second compound 1 µM
  IC50: > 10 µM
Second compound 3.16 µM
  IC50: < 0.0316 µM
Second compound 10 µM
  IC50: < 0.0316 µM
[1]
  viability, T/C: 101%
[2]
  viability, T/C: 92.6%
[3]
  viability, T/C: 108%
[4]
  viability, T/C: 97.3%
[5]
  viability, T/C: 96.7%
[6]
  viability, T/C: 91.5%
[7]
  viability, T/C: 98.5%
[8]
  viability, T/C: 99.8%
[9]
  viability, T/C: 100%
[10]
  viability, T/C: 94.2%
[11]
  viability, T/C: 105%
[12]
  viability, T/C: 93.2%
[13]
  viability, T/C: 90.2%
[14]
  viability, T/C: 98.9%
[15]
  viability, T/C: 98.8%
[16]
  viability, T/C: 94.2%
[17]
  viability, T/C: 90.7%
[18]
  viability, T/C: 82.4%
[19]
  viability, T/C: 83.5%
[20]
  viability, T/C: 78.2%
[21]
  viability, T/C: 87.4%
[22]
  viability, T/C: 88.8%
[23]
  viability, T/C: 90.5%
[24]
  viability, T/C: 68.6%
[25]
  viability, T/C: 30.2%
[26]
  viability, T/C: 30.1%
[27]
  viability, T/C: 16.5%
[28]
  viability, T/C: 22.4%
[29]
  viability, T/C: 20.8%
[30]
  viability, T/C: 19.9%
[31]
  viability, T/C: 3.35%
[32]
  viability, T/C: 3.56%
[33]
  viability, T/C: 2.69%
[34]
  viability, T/C: 2.33%
[35]
  viability, T/C: 2.29%
[36]
  viability, T/C: 2.63%

## COc1ccc([C@@H](O)c2cc(-c3ncnc4cc(N5CCOCC5)ccc34)c(F)cc2Cl)nn1 + CN(C)c1ccc(Nc2c3ccc(NC(=O)CCN4CCCC4)cc3nc3cc(NC(=O)CCN4CCCC4)ccc23)cc1
Second compound 0.0316 µM
  IC50: 9.54 µM
Second compound 0.1 µM
  IC50: > 10 µM
Second compound 0.316 µM
  IC50: > 10 µM
Second compound 1 µM
  IC50: > 10 µM
Second compound 3.16 µM
  IC50: 4.1 µM
Second compound 10 µM
  IC50: < 0.0316 µM
[1]
  viability, T/C: 105%
[2]
  viability, T/C: 106%
[3]
  viability, T/C: 104%
[4]
  viability, T/C: 103%
[5]
  viability, T/C: 83.8%
[6]
  viability, T/C: 48.5%
[7]
  viability, T/C: 121%
[8]
  viability, T/C: 93.8%
[9]
  viability, T/C: 92.1%
[10]
  viability, T/C: 92.7%
[11]
  viability, T/C: 74.4%
[12]
  viability, T/C: 53.6%
[13]
  viability, T/C: 104%
[14]
  viability, T/C: 98.1%
[15]
  viability, T/C: 91%
[16]
  viability, T/C: 86.6%
[17]
  viability, T/C: 81.6%
[18]
  viability, T/C: 50.1%
[19]
  viability, T/C: 93.4%
[20]
  viability, T/C: 101%
[21]
  viability, T/C: 98.5%
[22]
  viability, T/C: 88.1%
[23]
  viability, T/C: 81.3%
[24]
  viability, T/C: 51.9%
[25]
  viability, T/C: 94.6%
[26]
  viability, T/C: 101%
[27]
  viability, T/C: 86%
[28]
  viability, T/C: 63%
[29]
  viability, T/C: 60.2%
[30]
  viability, T/C: 34.9%
[31]
  viability, T/C: 13.4%
[32]
  viability, T/C: 21.5%
[33]
  viability, T/C: 19.6%
[34]
  viability, T/C: 14.6%
[35]
  viability, T/C: 10.4%
[36]
  viability, T/C: 6.55%
